Assay results from paper PMC10452110, “Indole-3-Acetamido-Polyamines as Antimicrobial Agents and Antibiotic Adjuvants” (Biomolecules, 2023).
≈ marks a conversion by molar mass, not a printed value. Read-outs that look alike come from different tables or passages of the source. Marks after values point to notes of the source that are not given here.

Assays:
[1] = test system: Klebsiella pneumoniae (ATCC 700603); set-up: method as in Cadelis et al. [15]; conditions: K. pneumoniae ATCC 700603; ref Cadelis et al. [15]; cited from earlier work
[2] = test system: Acinetobacter baumannii (ATCC 19606); set-up: method as in Cadelis et al. [15]; conditions: A. baumannii ATCC 19606; ref Cadelis et al. [15]; cited from earlier work
[3] = test system: Pseudomonas aeruginosa (ATCC 27853); set-up: method as in Cadelis et al. [15]; conditions: P. aeruginosa ATCC 27853; ref Cadelis et al. [15]; cited from earlier work
[4] = test system: HEK293 (human embryonic kidney) cells; set-up: method as in Cadelis et al. [15]; conditions: ref Cadelis et al. [15], cited from earlier work; for IC50: read-out: Cytotoxicity: concentration of compound at 50% cytotoxicity (IC50)
[5] = test system: Cryptococcus neoformans (ATCC 208821); set-up: method as in Cadelis et al. [15]; conditions: C. neoformans ATCC 208821; ref Cadelis et al. [15]; cited from earlier work
[6] = test system: Escherichia coli (ATCC 25922); set-up: method as in Cadelis et al. [15]; conditions: E. coli ATCC 25922; ref Cadelis et al. [15]; cited from earlier work
MRSA (ATCC 43300) [7] = conditions: ref Cadelis et al. [15]; cited from earlier work
[8] = test system: Candida albicans (ATCC 90028); set-up: method as in Cadelis et al. [15]; conditions: C. albicans ATCC 90028; ref Cadelis et al. [15]; cited from earlier work
P. aeruginosa ATCC 27853 [9] = test system: P. aeruginosa ATCC 27853; set-up: method as in Cadelis et al. [15]; conditions: doxycycline at 4.5 µM, ref Cadelis et al. [15], cited from earlier work; for Dox/P. a fold change (ratio between intrinsic MIC of the test compound and combination MIC): P. aeruginosa ATCC 27853; for Dox/P. a: concentration required to restore doxycycline activity (combination MIC): P. aeruginosa
human red blood cells [10] = test system: human red blood cells; set-up: method as in Cadelis et al. [15]; conditions: ref Cadelis et al. [15], cited from earlier work
[11] = test system: Staphylococcus aureus (ATCC 25923); set-up: method as in Cadelis et al. [15]; conditions: S. aureus ATCC 25923; ref Cadelis et al. [15]; cited from earlier work
[12] = test system: Escherichia coli (ATCC 25922); experiment: Intrinsic antimicrobial activity (MIC) against E. coli; assay type: cell-based; conditions: ATCC25922, E. coli ATCC 25922, mean (n = 3), read-out: MIC E. c
Outline: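 Bacterial susceptibility was determined following previously reported protocols. The antifungal evaluations were carried out at the Community for Open Antimicrobial Drug Discovery (University of Queensland, Australia) under its standard protocols.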

human red blood cells [13] = experiment: Hemolytic assay; assay type: cell-based; conditions: mean (n = 2)
Procedure: Hemolysis assays were conducted using the protocols previously reported.

S. aureus ATCC 25923 = experiment: Real time growth inhibition curves, microdilution MIC and MBC, S. aureus; assay type: cell-based, Staphylococcus aureus
Text: (§1) We next assessed the kinetics of antibacterial activity of 15c towards the Gram-positive bacteria S. aureus ATCC 25923 and MRSA (CF-Marseille) by measuring real time growth inhibition curves.

[14] = test system: Klebsiella pneumoniae (ATCC 700603); experiment: Intrinsic antimicrobial activity (MIC) against K. pneumoniae; assay type: cell-based; conditions: ATCC700603, K. pneumoniae ATCC 700603, mean (n = 2), read-out: MIC K. p
MRSA (CF-Marseille) = experiment: Real time growth inhibition curves, microdilution MIC and MBC, MRSA (CF-Marseille); assay type: cell-based, Staphylococcus aureus
Text: as §1

P. aeruginosa ATCC 27853 [15] = experiment: Enhancement of doxycycline action against P. aeruginosa; assay type: cell-based, Pseudomonas aeruginosa; conditions: doxycycline at 4.5 µM
Procedure: (§2) Antibiotic enhancer concentrations were determined using previously reported protocols.

[16] = test system: Acinetobacter baumannii (ATCC 19606); experiment: Intrinsic antimicrobial activity (MIC) against A. baumannii; assay type: cell-based; conditions: ATCC19606, A. baumannii ATCC 19606, mean (n = 2), read-out: MIC A. b
E. coli ATCC 25922 = experiment: Enhancement of erythromycin action against E. coli; assay type: cell-based, Escherichia coli; conditions: erythromycin at 10.9 µM
Procedure: as §2

[17] = test system: Cryptococcus neoformans (ATCC 208821); experiment: Intrinsic antifungal activity (MIC) against C. neoformans; assay type: cell-based; conditions: ATCC208821, C. neoformans ATCC 208821, mean (n = 2), read-out: MIC C. n
Outline: (§3)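 Fungal strains were tested by CO-ADD at The University of Queensland using that facility's standard protocols, whereas bacterial MICs followed methods published earlier.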

Cytotoxicity assay = assay type: cell-based; conditions: human; HEK293 cells; mean (n = 2); read-out: Cytotoxicity: concentration of compound at 50% cytotoxicity (IC50)
Procedure: Cytotoxicity assays were conducted using the protocols previously reported.

MRSA (ATCC 43300) [18] = experiment: Intrinsic antimicrobial activity (MIC) against MRSA; assay type: cell-based; conditions: Staphylococcus aureus, MRSA ATCC 43300; mean (n = 2); read-out: MIC MRSA
Outline: (§4)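 Susceptibility testing: bacteria per earlier published methods; fungi per CO-ADD standard protocols (University of Queensland).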

[19] = test system: Staphylococcus aureus (ATCC 25923); experiment: Intrinsic antimicrobial activity (MIC) against S. aureus; assay type: cell-based; conditions: ATCC25923, S. aureus ATCC 25923, mean (n = 3), read-out: MIC S. a
Outline: as §4

[20] = test system: Pseudomonas aeruginosa (ATCC 27853); experiment: Intrinsic antimicrobial activity (MIC) against P. aeruginosa; assay type: cell-based; conditions: ATCC27853, P. aeruginosa ATCC 27853, mean (n = 3), read-out: MIC P. a
Outline: as §4

[21] = test system: Candida albicans (ATCC 90028); experiment: Intrinsic antifungal activity (MIC) against C. albicans; assay type: cell-based; conditions: ATCC90028, C. albicans ATCC 90028, mean (n = 2), read-out: MIC C. a
Outline: as §3

K. pneumoniae = test system: K. pneumoniae; set-up: method as in PMID 33090655; conditions: ref [15]; cited from earlier work
E. coli = test system: E. coli; set-up: method as in PMID 33090655; conditions: ref [15]; cited from earlier work
[22] = lowest tested concentration 6.4 μM

COc1ccc2[nH]cc(CC(=O)NCCCNCCCCNCCCNC(=O)Cc3c[nH]c4ccc(OC)cc34)c2c1 [Compound 16a]
MIC K. p [1]: >55 µM
MIC A. b [2]: >55 µM
MIC P. a [3]: >200 µM
IC50 [4]: > 40 µM
MIC C. n [5]: >55 µM
MIC E. c [6]: >200 µM
MIC MRSA (MRSA (ATCC 43300) [7]): >55 µM
MIC C. a [8]: >55 µM
Dox/P. a fold change (ratio between intrinsic MIC of the test compound and combination MIC) (P. aeruginosa ATCC 27853 [9]): > 1 fold
Dox/P. a: concentration required to restore doxycycline activity (combination MIC) (P. aeruginosa ATCC 27853 [9]): 200 µM
Hemolysis: concentration of compound at 10% hemolytic activity (HC10) (human red blood cells [10]): >40 µM
MIC S. a [11]: 200 µM (≈ 115 µg/mL)

O=C(Cc1c[nH]c2ccc(Br)cc12)NCCCNCCCCCCCNCCCNC(=O)Cc1c[nH]c2ccc(Br)cc12.O=C(O)C(F)(F)F.O=C(O)C(F)(F)F [Compound 15c, N^1,N^7-Bis(3-(2-(5-bromo-1H-indol-3-yl)acetamido)propyl)heptane-1,7-diaminium 2,2,2-trifluoroacetate]
MIC [12]: 13.2 µM
Hemolysis: concentration of compound at 10% hemolytic activity (HC10) (human red blood cells [13]): >34 µM
mode of antibacterial action (MBC versus MIC) (S. aureus ATCC 25923): bactericidal
MIC (S. aureus ATCC 25923; Staphylococcus aureus, ATCC25923, matches real time growth curve at 18 h, read-out: MIC (classical microdilution methodology)): 12.7 µM
MBC (S. aureus ATCC 25923; Staphylococcus aureus, ATCC25923, read-out: minimum bactericidal concentration (MBC)): 12.7 µM
real time growth inhibition (S. aureus ATCC 25923; at 25.4 μM and 12.7 μM): completely inhibited
time after which bacterial growth was detected (S. aureus ATCC 25923; [22]): > 4 h
MIC [14]: > 34 µM
mode of antibacterial action (MBC versus MIC) (MRSA (CF-Marseille)): bactericidal
MIC (MRSA (CF-Marseille); Staphylococcus aureus, matches real time growth curve at 18 h, read-out: MIC (classical microdilution methodology)): 12.7 µM
MBC (MRSA (CF-Marseille); Staphylococcus aureus, read-out: minimum bactericidal concentration (MBC)): 12.7 µM
real time growth inhibition (MRSA (CF-Marseille); at 25.4 μM and 12.7 μM): completely inhibited
time after which bacterial growth was detected (MRSA (CF-Marseille); [22]): > 4 h
Dox/P. a: concentration required to restore doxycycline activity (combination MIC) (P. aeruginosa ATCC 27853 [15]): 6.62 µM
MIC [16]: > 34 µM
Eryth/E. c: concentration required to restore erythromycin activity (combination MIC) (E. coli ATCC 25922): 6.62 µM
MIC [17]: ≤ 0.26 µM
IC50 (Cytotoxicity assay): > 34 µM
MIC (MRSA (ATCC 43300) [18]): ≤ 0.26 µM
MIC [19]: 12.7 µM
MIC [20]: 106 µM
MIC [21]: ≤ 0.26 µM

O=C(Cc1c[nH]c2ccc(Br)cc12)NCCCNCCCCNCCCNC(=O)Cc1c[nH]c2ccc(Br)cc12 [Compound 15a]
MIC K. p [1]: >48 µM
MIC A. b [2]: >48 µM
MIC P. a [3]: 200 µM (≈ 135 µg/mL)
enhancement of the antibiotic action of doxycycline (MIC) (K. pneumoniae): 6.25 µM
IC50 [4]: > 35 µM
Cytotoxicity: concentration of compound at 50% cytotoxicity (IC50) [4]: negligible
MIC C. n [5]: 11.9 µM (≈ 8.03 µg/mL)
MIC E. c [6]: 200 µM (≈ 135 µg/mL)
MIC MRSA (MRSA (ATCC 43300) [7]): 47.4 µM (≈ 32 µg/mL)
MIC C. a [8]: >48 µM
Dox/P. a fold change (ratio between intrinsic MIC of the test compound and combination MIC) (P. aeruginosa ATCC 27853 [9]): 32 fold
Dox/P. a: concentration required to restore doxycycline activity (combination MIC) (P. aeruginosa ATCC 27853 [9]): 6.25 µM
Hemolysis: concentration of compound at 10% hemolytic activity (HC10) (human red blood cells [10]; listed as 5): negligible
Hemolysis: concentration of compound at 10% hemolytic activity (HC10) (human red blood cells [10]): >35 µM
enhancement of the antibiotic action of doxycycline (MIC) (E. coli): 3.125 µM
MIC S. a [11]: 25 µM (≈ 16.9 µg/mL)

O=C(Cc1c[nH]c2ccccc12)NCCCNCCCCNCCCNC(=O)Cc1c[nH]c2ccccc12 [Compound 14a]
MIC K. p [1]: >62 µM
MIC A. b [2]: >62 µM
MIC P. a [3]: >200 µM
IC50 [4]: > 43 µM
MIC C. n [5]: >62 µM
MIC E. c [6]: >200 ^j µM
MIC MRSA (MRSA (ATCC 43300) [7]): >62 µM
MIC C. a [8]: >62 µM
Dox/P. a fold change (ratio between intrinsic MIC of the test compound and combination MIC) (P. aeruginosa ATCC 27853 [9]): > 4 fold
Dox/P. a: concentration required to restore doxycycline activity (combination MIC) (P. aeruginosa ATCC 27853 [9]): 50 µM
Hemolysis: concentration of compound at 10% hemolytic activity (HC10) (human red blood cells [10]): >43 µM
MIC S. a [11]: 200 µM (≈ 103 µg/mL)
